Legend:
[1] = Stability in human liver microsomes (NADPH-dependent); assay type: in vitro ADME
Method: The compounds were incubated in duplicate with human liver microsomes at 37° C. The reaction contained microsomal protein in 100 mM potassium phosphate, 2 mM NADPH, 3 mM MgCl2, pH 7.4. A control was run for each compound omitting NADPH to detect NADPH-independent degradation. An aliquot was removed from each experimental and control reaction at 0, 10, 20, 30, and 60 minutes and mixed with an equal volume of ice-cold Stop Solution (0.3% acetic acid in acetonitrile containing haloperidol, diclofenac, or other internal standard). Stopped reactions were incubated for at least ten minutes at −20° C., and an additional volume of water was added. The samples were centrifuged to remove precipitated protein, and the supernatants were analyzed by LCMS/MS to quantitate the remaining compound. Data were converted to percent remaining by dividing by the time zero concentration value. Data were fit to a first-order decay model to determine half-life. Intrinsic clearance was calculated from the half-life and the protein concentrations: CLint=ln(2)/(t½[microsomal protein]). […] More surprising is that eliminating the ring nitrogen in SX-517 yielded a half-life even larger than that of SX-682. The results as a whole led to no SAR predictive of the surprising stability of SX-682.

[2] = tested on: T11 mouse model of breast cancer; test: T11 mouse model of breast cancer; assay type: in vivo
Description: The T11 model is a validated mouse model of breast cancer, which derives from the serial orthotopic transplantation of a murine breast tumor derived from a p53-null mouse into a syngeneic p53 competent recipient, and features sporadic, somatic K-Ras mutation (Herschkowitz, 2012, Proc Natl Acad Sci, 109:2778-83, herein incorporated by reference). Tumors from the T11 model display an RNA expression pattern characteristic of the human claudin-low disease, and are extremely aggressive, with the majority of untreated animals surviving less than 21 days from the time of enrollment in the therapy studies. Treatment regimens were started following tumor manifestation. SX-682 was given orally via medicated feed, at an approximate dose of 10 mg/day/mouse. In brief, the medicated feed was prepared by Research Diets (New Brunswick, N.J.) by incorporating 15.2 grams of SX-682 spray dried dispersion (as prepared in Formulation Example 1) into 1042 grams of standard rodent diet with 10% kcals from fat. The medicated feed was formed into pellets. Carboplatin (CP) was administered once weekly via intraperitoneal injection at a dose of 50 mg/kg. […] Mean±SE. *** P<0.0001 (linear regression).

[3] = tested on: B16-F10 syngeneic mouse model of melanoma; test: B16-F10 syngeneic mouse model of melanoma; assay type: in vivo
Method: The B16-F10 mouse model is an established model of melanoma, Overwijk, 2001, CURR PROTOC IMMUNOL, Chapter 20: Units 20-21 (herein incorporated by reference), which was used to evaluate the effect of SX-682 alone and in combination with anti-PD1 antibody. B16-F10 mouse melanoma cells were cultured, then mice were injected with 0.5×10^6 B16-F10 cells on day 0, and treatment was initiated on day 18. Mice were treated with vehicle (control), SX-682 alone (50 mg/kg twice daily, oral), anti-PD-1 alone (100 μg twice weekly, i.p.), or SX-682 in combination with anti-PD-1 (N=4-5 per cohort). SX-682 was used as a spray dried dispersion (Formulation Example 1), and was administered to mice via oral gavage as a suspension in 0.5% aq. methylcellulose. […] Data and error bars are the mean±SE.

Structure (SMILES): O=C(Nc1ccc(F)cc1)c1cnc(SCc2cc(OC(F)(F)F)ccc2B(O)O)nc1 [SX-682, 2-(2-boronic acid-5-trifluoromethoxy-benzylsulfanyl)-pyrimidine-5-carboxylic acid (4-fluoro-phenyl)-amide]
- microsomal half-life larger than SX-671 or SX-576 [1]: 6 fold
- microsomal CLint ([1]; pH 7.4, 37° C., NADPH-dependent, read-out: CLint, microsomal intrinsic clearance): 2.1 µL/min/mg
- tumor volume, SX-682 alone ([2]; 10 mg/day/mouse oral, 1-2 weeks): effective therapy
- tumor growth, SX-682 added to carboplatin ([2]; SX-682 10 mg/day/mouse oral feed + CP 50 mg/kg weekly i.p.): significantly reduced tumor growth
- tumor growth, SX-682 monotherapy ([3]; 50 mg/kg twice daily, oral): significantly slowed tumor growth
- tumor growth, SX-682 in combination with anti-PD-1 ([3]; SX-682 50 mg/kg twice daily oral + anti-PD-1 100 μg twice weekly i.p.): significantly better than either therapy alone
